The values below come from patent US20250215105A1, “ANTI-CD39 ANTIBODY” (BrightPath Biotherapeutics Co., Ltd., priority 2022, published 2025).

In data set [1] the test system is human multiple myeloma-derived cell line MOLP-8. The note with it: day 24, last day of the study.
Method: The human multiple myeloma-derived cell line MOLP-8 (DMSZ, ACC569) was subcutaneously transplanted (at 5×10^6 cells/mouse) into the right abdomen of each SCID mouse (C.B-17/Icr-scid/scidJcl, female, 7-week-old). On day 10 after transplantation, the mice were divided into groups based on tumor volume. Each antibody was administered in the doses listed in Table 3 twice a week for a total of seven doses starting on the day of grouping. Doxorubicin was administered twice a week for a total of 5 doses, starting 7 days after the grouping date. The tumor diameter and body weight were measured on day 24 after grouping. The tumor weight (n=5) data were analyzed using GraphPad Prism 9.2.0. One-way ANOVA and Tukey multiple comparisons test were used for statistical analysis. A significant difference was assumed when p**≤0.01.
Data set [2] relates to T cells in healthy human PBMCs. Kind of data set: effects on T cells in cultured healthy PBMCs (cell type analysis, Treg removal, cytotoxic T cell induction). Type of data set: cell-based. The note with it: healthy PBMCs cultured with antibody for 5 days. The method, then:
Purchased healthy human PBMCs (33000-10, Wako Pure Chemicals) were seeded at 5×10^5 cells/well in a 96 well U-bottom plate and cultured in the presence of 100 IU/mL IL-2 (87-890, NIPRO) and 20 ng/mL IL-7 (200-07, PeproTech) for 5 or 6 days to induce Tregs. The medium was washed out and the cells were cultured in the presence of CMV peptide A02 (TS-0010-1c, MBL), 10 IU/mL IL-2, and 20 ng/mL IL-7 for 11 days to induce antigen-specific cytotoxic T cells. The medium used was RPMI-1640 (189-0202, Wako Pure Chemicals) supplemented with 10% Human Serum AB (100-512, H46X00K, Gemini Bio), 1 mM penicillin streptomycin (09367-34, Nacalai Tesque), 1 mM sodium pyruvate (11360070, Gibco), 10 mM HEPES (17557-9, Nacalai Tesque), 1% GlutaMAX (35050061, Thermo Fisher), and 0.01 mM 2-mercaptoethanol (21438-82, Nacalai Tesque).
FACSVerse (BD) was used for various cell type analyses. Cells were counted using CountBright™ Absolute Counting Beads (C36950, Invitrogen). GraphPad Prism 9.2.0 was used for data analysis.
Substantially the same method as described in the Section 21.1 above was used to check a change in the percentage of various CD39^hi-expressing T cells by each glycan-modified anti-CD39 antibody.

The test system of another data set is activated Tregs. The experiment in a line: binding to activated Tregs (FACS). Also on record: species or system human. The note with it: 10 μg/mL. How it is done:
Purchased healthy human PBMCs (Wako Pure Chemicals, 33000-10M) were seeded at 2×10^5 cells/well in a 96 well U-bottom plate and cultured in the presence of 10 IU/mL IL-2 (NIPRO, 87-890) and 20 ng/mL IL-7 (PeproTech, 200-07) for 6 days. After 6 days, all the cells were collected and the Treg population was isolated using a CD4^+CD25^+CD127^dim/− Regulatory T Cell Isolation Kit II, human (Miltenyi, 130-094-775). Isolated Tregs were seeded at 2×10^4 cells/well in ab96 well U-bottom plate and stimulated for 6 days in the presence of 6×10^5 Dynabeads Human T-Activator CD3/CD28 (Gibco, DB11132-D), 10 IU/mL IL-2, and 20 ng/mL IL-7. The medium used was RPMI (Wako Pure Chemicals, 189-02025) supplemented with 10% Human Serum AB (Gemini Bio, 100-512, H46X00K), 1 mM penicillin streptomycin (Nacalai Tesque, 09367-34), 1 mM sodium pyruvate (Gibco, 11360070), 10 mM HEPES (Nacalai Tesque, 17557-94), GlutaMAX (Thermo Fisher, 35050061). 11360070), 10 mM HEPES (Nacalai Tesque, 17557-94), and GlutaMAX (Thermo Fisher, 35050061). After 6 days, Tregs were collected and analyzed for binding of each test antibody by using a FACSVerse. GraphPad Prism 9.2.0 was used for data analysis.

The subject of data set [3] is A375 (malignant melanoma cancer cell line). The experiment in a line: cancer cell growth inhibition test with Treg-removed PBMCs. It is filed as cell-based, human. The note with it: PBMCs pre-treated with 10 μg/ml antibody for 5 days, co-culture 5 days. The method, then: Purchased healthy human PBMCs (Wako Pure Chemicals, 33000-10M) were seeded at 5×10^5 cells/well in a 96 well U-bottom plate and cultured in the presence of 100 IU/mL IL-2 (NIPRO, 87-890), 20 ng/mL IL-7 (PeproTech, 200-07), and each test antibody at 10 μg/ml for 5 days. Then, 15,000 cells/well of A375 (malignant melanoma cancer cell line) overexpressing CMV antigen and RFP were mixed with 45,000 cells/well of PBMCs prepared after 5 days of culture, and the mixture was co-cultured at 37° C. and 5% CO2 for 5 days. At this time, the medium used was RPMI-1640 (189-0202, Wako Pure Chemicals) supplemented with 10% Human Serum AB (100-512, H46X00K, Gemini Bio), 1 mM penicillin streptomycin (09367-34, Nacalai Tesque), 1 mM sodium pyruvate (11360070, Gibco), 10 mM HEPES (17557-9, Nacalai Tesque), 1% GlutaMAX (35050061, Thermo Fisher), and 0.01 mM 2-mercaptoethanol (21438-82, Nacalai Tesque). The number of A375 cells was then determined by measuring the fluorescence value of RFP while using a Varioskan LUX multimode microplate reader (Thermo Fisher Scientific). GraphPad Prism 9.2.0 was used for data analysis.

As for `COc1cccc2c1C(=O)c1c(O)c3c(c(O)c1C2=O)C[C@@](O)(C(=O)CO)C[C@@H]3O[C@H]1C[C@H](N)[C@H](O)[C@H](C)O1` [doxorubicin], the heart weight result in data set [1] is on record as “decreased”.
For ipilimumab, the “CD39^hiCD4+FoxP3+ Tregs and effector Tregs (Fr. II)” value in data set [2] is recorded as “significant loss of only effector Tregs (Fr. II)”. Also, the “ability of binding to activated Tregs” value with activated Tregs is “not strong”. Besides, in data set [3], the “growth of human malignant melanoma A375” value was “no inhibitory effect”.
mogamulizumab: in data set [2], the “CD39^hiCD4+FoxP3+ Tregs and effector Tregs (Fr. II)” value is recorded as “significant loss of only effector Tregs (Fr. II)”. Besides, the “ability of binding to activated Tregs” value in the data set on activated Tregs is “not strong”.
